The record followed here is patent US8846615B2, “MNTF peptides” (Genervon Biopharmaceuticals, LLC, priority 2008, dated 2014).

No end group written: not given here.

This assay concerns rat spinal motor neurons. The assay is described as follows: in vitro rat motor neuron cell survival assay. The format is cell-based. Particulars: for MN survival (% Ctrl): 10 μg/mL peptide, medium lacking NTFs, surviving motor neurons as percentage of those surviving with NTFs alone (control), mean ± SD of five samples; for trophic effect on motor neuron cell death (in words): 10 μg/ml, culture medium lacking the conventional NTFs. On the procedure: FIG. 1. Illustrates a survival assay of exemplary MNTF peptides on motor neuron survival. Motor neurons were cultured from rat spinal cords and grown in culture for 3 days in the presence of BDNF, GDNF and CNTF. After 3 days, the cells were grown in the absence of the conventional trophic factors but with the indicated MNTF peptides at 10 microgram/ml. After 48 hours the number of live cells was determined. The graph indicates mean+/−SD of five samples (BDNF=Brain derived neurotrophic factor; GDNF=Glial derived neurotrophic factor; CNTF=Ciliary neurotrophic factor).
Purification and culture of motor neurons. Spinal motor neuron cultures were prepared from E14.5 Sprague-Dawley rats (Charles River Labs). Briefly, dissected spinal cords were digested in 0.025% trypsin (Gibco) for 8 min at 37° C. The tissue was transferred to a solution containing L-15 medium (Gibco) supplemented with 2% horse serum (Gibco), insulin (5 μg/ml); putrescine (1×10^-4 M), conalbumin (100 μg/ml), sodium selenite (3×10^-8 M), progesterone (2×10^-8 M), glucose (3.6 mg/ml), penicillin (100 IU/ml), streptomycin (100 μg/ml), DNAse (100 μg/ml) and bovine serum albumin (BSA; 0.4%). […] The layered suspension was centrifuged at 830×g for 15 min. […] The motor neurons medium consists of neurobasal medium (Gibco) supplemented with B27 supplement (Gibco), glutamate (25 μM), 2-mercaptoethanol (25 μM) and 2% horse serum. The motor neurons were plated onto laminin-coated coverslips at a density of 3000 cells/coverslip unless otherwise stated. A cocktail of neurotrophic factors (NTFs: 1 ng/ml BDNF, 100 pg/ml GDNF, 10 ng/ml CNTF) was added at the time of cell seeding. After 24 h in culture, motor neurons were treated by addition of the different analogs diluted in motor neurons medium lacking NTFs.
Survival assay. Spinal motor neurons were prepared from E14.5 rat embryos as described. Cells were cultured in the presence of NTFs for 24 h and viability (VI) was estimated by counting the number of calcein AM-positive cells. For viability studies, motor neurons were cultured in the absence of NTFs with the addition of the analogs or GM6. The percentage of viable motor neurons was calculated by counting the number of neurons.
Statistical analysis. The number of surviving motor neurons for each treatment was expressed as a percentage of the number of motor neurons surviving in the presence of NTFs alone (control). Five dishes were used for each condition. Differences between treatments were analyzed for their statistical significance by one-way ANOVA with post hoc Tukey's testing.

On to “SRYAR [compound 2312, 5-mer MNTF peptide, metabolite of the 6mer]”, for which the “MN survival (% Ctrl)” value was determined as 12.02 ± 2.31 % Ctrl.

As to “FSR [compound 2307, 3-mer MNTF peptide, metabolite of the 6mer]”, the “MN survival (% Ctrl)” value stood at 35.00 ± 5.28 % Ctrl.

“YAR [compound 2310, 3-mer MNTF peptide, metabolite of the 6mer]”: the “MN survival (% Ctrl)” value is listed as 12.26 ± 1.70 % Ctrl.

As for “RYAR [compound 2311, 4-mer MNTF peptide, metabolite of the 6mer]”, the “MN survival (% Ctrl)” value came out at 9.66 ± 2.50 % Ctrl.

Turning to RYA [compound 3222, 3-mer MNTF peptide], the “MN survival (% Ctrl)” value is 10.64 ± 1.72 % Ctrl.

For the substance “FSRY [compound 2308, 4-mer MNTF peptide, metabolite of the 6mer]”, the “MN survival (% Ctrl)” value is on record as 66.38 ± 5.86 % Ctrl.

Turning to “FSRYA [compound 2309, 5-mer MNTF peptide, metabolite of the 6mer]”, the “MN survival (% Ctrl)” value is recorded as 81.5 ± 4.50 % Ctrl.

On to “FSRYAR [GM6(GMP014), synthesized 6 amino acid peptide analog of MNTF]”, for which the “MN survival (% Ctrl)” value was 94.02 ± 3.53 % Ctrl and the “trophic effect on motor neuron cell death (in words)” value is “demonstrated protection from neuronal cell loss”. Also, under “listed as GM6”, the “trophic effect on motor neuron cell death (in words)” value was “demonstrated an attenuation of motor neuron cell death”.

For SRY [compound 3221, 3-mer MNTF peptide], the “MN survival (% Ctrl)” value was found to be 9.08 ± 2.32 % Ctrl.

With “SRYA [compound 3223, 4-mer MNTF peptide]”, the “MN survival (% Ctrl)” value was determined as 15.46 ± 1.82 % Ctrl.
